In patent US20080214661A1, “Process To Obtain Dibenzylbutyrolactonic, Tetrahydrofuranic Lignans And Their Synthetic And Semi-Synthetic Derivatives, Their Analgesic And Anti-Inflammatory Activities, Topical And/Or Systemic Formulations Containing Said Lignans And Their Respective Therapeutic Method” (FUNDACADO DE AMPARO A PESQUISA DO ESTADO DE SAO PAULO, priority 2005, published 2008):

Key:
Assay type in all cases: in vivo
[1] = system: writhing induced by 0.6% acetic acid solution in mice; assay: writhing test induced by intraperitoneal injection of acetic acid; details: oral administration, doses of 10, 20, 30 and 40 mg/kg; 0.6% acetic acid i.p. in mice; number of writhing in 20 minutes; dose for the value not stated
Description: Each bar represents the average ±SE (n=6) of the number of writhing in 20 minutes for different doses. Data were analyzed by one-way ANOVA and by Dunnett's multiple comparison variation test and the statistical significance was made for the level of p<0.05 (*) and p<0,01 (**)

[2] = system: rat foot edema induced by carrageenin; assay: rat foot edema induced by carrageenin; details: oral administration; for inhibition as anti-inflammatory agent (rat foot edema): doses of 10, 20, 30 and 40 mg/kg, carrageenin 100 μg/foot, edema volume at third hour, dose for the value not stated
Description: Each bar represents the average ±SE (n=6) of the increase in edema volume (third hour) after the injection of carrageenin. Data were analyzed by one-way ANOVA and by Dunnett's multiple comparison variation test and the statistical significance was made for the level of p<0.05 (*) and p<0.01 (**).

digestive system = assay: preliminary tests of side effects (gastric, biochemical, hematological)

Molecule	inhibition as analgesic agent (writhing test) [1] [%]	inhibition as anti-inflammatory agent (rat foot edema) [2] [%]	efficacy as anti-inflammatory agent ([2]; 10-40 mg/kg, carrageenin-induced rat foot edema)	gastric effects (digestive system)	other biochemical and hematological disturbances (digestive system)
(-)-6,6′-dinitroinokinin [compound 7]	75	62			
c1ccc(COC2OC[C@@H](Cc3ccc4c(c3)OCO4)[C@@H]2Cc2ccc3c(c2)OCO3)cc1 (stereo partly drawn) [compound 5, (-)—O-benzyl cubebin]	89		not efficient as an anti-inflammatory agent		
COc1ccc2c(c1)c(CC(=O)O)c(C)n2C(=O)c1ccc(Cl)cc1 [indomethacin, reference compound]				gastric effects as observed	
Nc1cc2c(cc1CC1COC(=O)C1Cc1cc3c(cc1N)OCO3)OCO2 (single isomer, unassigned; (-)) [compound 8, (-)-6,6′-diaminohinokinin]	92	82		not evident	non-occurrence
O=C1OC[C@@H](Cc2ccc3c(c2)OCO3)[C@@H]1Cc1ccc2c(c1)OCO2 [compound 6, (-)-hinokinin]	95	71		not evident	non-occurrence
